This note sets out measurements from patent US9655942B2, “Medical formulation for treating hypercholesterolemia” (priority 2012, dated 2017).

For assay [1], the system named is patients suffering from increased low density lipoprotein (LDL) levels. Kind of assay: Example 2: blood level effects (cholesterol, HDL, LDL, non-HDL, risk factor, triglycerides) after three months. The settings on record: for HDL / LDL / Non-HDL cholesterol / Total cholesterol / Triglycerides: group value; for Risk factor: total cholesterol blood level divided by HDL blood level. The class given is in vivo, human. The protocol: Especially, the present invention relates to the present medical formulations for recuperation of vascular walls, lowering low density lipoprotein blood levels, lowering the viscosity of blood, lowering blood pressure, and/or increasing high density lipoprotein levels. Preferably, the present invention relates to the present medical formulation for reducing the risk factor in humans, or patients, at risk of hypercholesterolemia, wherein the risk factor is determined by the total cholesterol blood level divided by the HDL blood level.
(§1) As control, group 1 of 5 patients suffering from increased low density lipoprotein (LDL) levels were treated for three months with a formulation comprising, as daily dose 11.40 mg extract of lovastatin.
(§2) A group 2 of 14 patients suffering from increased low density lipoprotein (LDL) levels were treated for three months with a formulation comprising, as daily dose: • 4.80 mg bark extract of cinnamomum zeylanicum; • 24.20 mg fibre extract of Pinus pinaster; • 24.00 mg bark extract Saccharum officinarum; • 11.40 mg lovastatin; • 1.2 mg leave extract of Taraxacum officinale; • 16 mg leave extract of Camellia sinensis; • 20 mg nicotinamide; • 14 mg 50% alpha tocopherol; • 60 mg coenzyme Q10; • 37.80 mg fish oil comprising 19.2 wt % eicosapentaenoic acid and 12.9 wt % docosahexanoic acid; • 60.00 mg beta-glucan; and • 1 mg cholecalciferol.
(§3) The above ingredients were divided in two capsules for daily intake. The capsules were composed of gelatin. One capsule was taken during breakfast; the other was taken during dinner.

For assay [2] the test system is unchanged. Kind of assay: Example 2: blood pressure after three months. Type of assay: in vivo, human. The protocol: as §1, §2, §3

`CC[C@H](C)C(=O)O[C@H]1C[C@@H](C)C=C2C=C[C@H](C)[C@H](CC[C@@H]3C[C@@H](O)CC(=O)O3)[C@H]21` [lovastatin]: in assay [1] (change T = 0 to T = 3 months), the “HDL Δ” value was -4.0 mg/dL, the “LDL Δ” value was -23.0 mg/dL, the “Non-HDL cholesterol Δ” value is -28.0 mg/dL and the Risk factor Δ was -0.41. In addition, in assay [1] (change T = 0 to T = 3 months), the “Total cholesterol Δ” value is -26.2 mg/dL and the “Triglycerides Δ” value was -19 mg/dL. Also, in assay [1] (T = 0 (before treatment)), the HDL turned out to be 72.0 mg/dL, the LDL turned out to be 96.2 mg/dL, the Non-HDL cholesterol was 129.4 mg/dL and the Total cholesterol is 201.4 mg/dL. In assay [1] (T = 0 (before treatment)), this molecule registered a Triglycerides of 165.8 mg/dL and a Risk factor of 2.91. For the same molecule, in assay [1] (T = 3 (three months treatment)), the HDL is 68.0 mg/dL, the LDL came to 73.2 mg/dL, the Non-HDL cholesterol was found to be 101.4 mg/dL and the Total cholesterol came out at 175.2 mg/dL. Also, in assay [1] (T = 3 (three months treatment)), the Triglycerides amounted to 146.8 mg/dL and the Risk factor amounted to 2.5. For the same molecule, in assay [1] (three months treatment, stated as size of reduction), the “reduction of risk factor” value was determined as 0.41. In assay [2] (T = 0 (before treatment)), this molecule yielded a Diastolic of 79.2 mmHg and a Systolic of 120.0 mmHg. In assay [2] (T = 3 (three months treatment)), this molecule had a Diastolic of 79.1 mmHg and a Systolic of 130.0 mmHg. Moreover, the “Diastolic Δ” value in assay [2] (change T = 0 to T = 3 months) was −0.1 mmHg.
